In the NIST ThermoML archive (doi:10.1021/je100484n):

Tests used:
[1] = refractive index (Na D-line) (dimensionless); details: 101.33 kPa, Liquid
[2] = xn = mol fraction of the nth substance listed; details: 101 kPa, Liquid, x2 = 0
[3] = refractive index (Na D-line) (dimensionless); xn = mol fraction of the nth substance listed; details: 101 kPa, Liquid
[4] = 101 kPa, Liquid

NC1CCCCC1 [cyclohexylamine]
[1]
Details | refractive index
303.15 K | 1.45375
308.15 K | 1.45114
313.15 K | 1.44856
318.15 K | 1.44599
323.15 K | 1.44336

CCCCCCC [heptane] + CC(C)(C)O
[2]
Details | mass density [kg/m3]
303.15 K | 675.229
308.15 K | 670.941
313.15 K | 666.621
318.15 K | 662.273
323.15 K | 657.896

[3], x2 = 0
Details | refractive index
303.15 K | 1.38259
308.15 K | 1.37995
313.15 K | 1.37731
318.15 K | 1.37463
323.15 K | 1.37197

CCCCCCC [heptane] + NC1CCCCC1
[3], x2 = 0
Details | refractive index
303.15 K | 1.38259
308.15 K | 1.37995
313.15 K | 1.37731
318.15 K | 1.37463
323.15 K | 1.37197

CC(C)(C)O [2-methylpropan-2-ol]
Details | mass density, 303.15 K [kg/m3] | mass density, 308.15 K [kg/m3] | mass density, 313.15 K [kg/m3] | mass density, 318.15 K [kg/m3] | mass density, 323.15 K [kg/m3] | refractive index, 303.15 K | refractive index, 308.15 K | refractive index, 313.15 K | refractive index, 318.15 K | refractive index, 323.15 K
[1] | – | – | – | – | – | 1.38222 | 1.37947 | 1.37667 | 1.37384 | 1.37097
[4] | 775.412 | 770.193 | 764.884 | 759.488 | 754.015 | – | – | – | – | –

NC1CCCCC1 [cyclohexylamine] + CCCCCCC
refractive index, [3]
Details | 303.15 K | 308.15 K | 313.15 K | 318.15 K | 323.15 K
x1 = 0.0501 | 1.38508 | 1.38246 | 1.37983 | 1.37719 | 1.37451
x1 = 0.1002 | 1.38768 | 1.38507 | 1.38246 | 1.37983 | 1.37717
x1 = 0.1501 | 1.39038 | 1.38778 | 1.38516 | 1.38255 | 1.37991
x1 = 0.2305 | 1.39503 | 1.39245 | 1.38984 | 1.38719 | 1.38449
x1 = 0.3004 | 1.3993 | 1.39673 | 1.3941 | 1.39149 | 1.38874
x1 = 0.401 | 1.40584 | 1.40324 | 1.40059 | 1.39797 | 1.39527
x1 = 0.4497 | 1.40915 | 1.40655 | 1.40392 | 1.40129 | 1.39851
x1 = 0.5597 | 1.41708 | 1.41446 | 1.41182 | 1.40915 | 1.40647
x1 = 0.6001 | 1.42001 | 1.41739 | 1.41478 | 1.41215 | 1.40951
x1 = 0.6498 | 1.4238 | 1.4212 | 1.41859 | 1.41595 | 1.41327
x1 = 0.6994 | 1.42771 | 1.4251 | 1.42248 | 1.41981 | 1.41719
x1 = 0.7999 | 1.43588 | 1.43327 | 1.43065 | 1.428 | 1.42528
x1 = 0.8992 | 1.44452 | 1.44189 | 1.43928 | 1.43667 | 1.43405
x1 = 1 | 1.45375 | 1.45114 | 1.44856 | 1.44599 | 1.44336

CC(C)(C)O [2-methylpropan-2-ol] + NC1CCCCC1
[3], x1 = 1
Details | refractive index
303.15 K | 1.38222
308.15 K | 1.37947
313.15 K | 1.37667
318.15 K | 1.37384
323.15 K | 1.37097

CCCCCCC [heptane]
Details | mass density, 303.15 K [kg/m3] | mass density, 308.15 K [kg/m3] | mass density, 313.15 K [kg/m3] | mass density, 318.15 K [kg/m3] | mass density, 323.15 K [kg/m3] | refractive index, 303.15 K | refractive index, 308.15 K | refractive index, 313.15 K | refractive index, 318.15 K | refractive index, 323.15 K
[1] | – | – | – | – | – | 1.38259 | 1.37995 | 1.37731 | 1.37463 | 1.37197
[4] | 675.229 | 670.941 | 666.621 | 662.273 | 657.896 | – | – | – | – | –

NC1CCCCC1 [cyclohexylamine] + CC(C)(C)O
refractive index, [3]
Details | 303.15 K | 308.15 K | 313.15 K | 318.15 K | 323.15 K
x2 = 0 | 1.45375 | 1.45114 | 1.44856 | 1.44599 | 1.44336
x2 = 0.0508 | 1.45149 | 1.44888 | 1.44629 | 1.44368 | 1.44108
x2 = 0.1002 | 1.44914 | 1.44655 | 1.44395 | 1.44132 | 1.43876
x2 = 0.1502 | 1.44664 | 1.44404 | 1.44142 | 1.43884 | 1.43629
x2 = 0.2001 | 1.44406 | 1.44146 | 1.43888 | 1.4363 | 1.43371
x2 = 0.3005 | 1.43846 | 1.43586 | 1.43328 | 1.43068 | 1.42812
x2 = 0.3991 | 1.4325 | 1.42991 | 1.42732 | 1.42471 | 1.42218
x2 = 0.4996 | 1.42579 | 1.42321 | 1.42064 | 1.41804 | 1.41553
x2 = 0.5998 | 1.41855 | 1.41598 | 1.41339 | 1.41077 | 1.40818
x2 = 0.6997 | 1.41063 | 1.40805 | 1.40544 | 1.40284 | 1.40018
x2 = 0.7999 | 1.40191 | 1.39934 | 1.39676 | 1.39405 | 1.3914
x2 = 0.8712 | 1.39554 | 1.39281 | 1.39012 | 1.38734 | 1.38459
x2 = 0.8992 | 1.39261 | 1.38996 | 1.38723 | 1.3845 | 1.38176
x2 = 0.9504 | 1.38751 | 1.3848 | 1.38207 | 1.37923 | 1.37642
